From US20220290114A1 (priority 2019, published 2022) come the findings set out here.

Read-outs that look alike come from different tables or passages of the source. Where only a bound is given, the exact number is not on record here.

Data set [1] concerns C. perfringens reference strains (NCTC 2837, 8235, 8237, 8238, 8239, 8359, 8678, 10578). Type of data set: cell-based, Clostridium perfringens. Conditions: for effect in spot assay: NCTC 8237, FIG. 4, freshly-plated cells and cell lawns; for effect on C. perfringens growth in spot assay: 10 μg/ml chloramphenicol, 20 μg/ml spectinomycin, 1 mg/mL lysozyme, 1 mg/mL disodium EDTA.

In data set [2] the test system is Bifidobacterium adolescentis (DSMZ 20083). Description: Spot assay of clarified lysates on non-Cp species. Type of data set: cell-based. Set-up: key: The presence of antimicrobial activity is denoted by a ‘+’; the lack of antimicrobial activity is denoted by a ‘−’.
For data set [3], the system named is Clostridium leptum (DSMZ 753). Description: Spot assay of clarified lysates on non-Cp species. In kind it is cell-based. Set-up: key: The presence of antimicrobial activity is denoted by a ‘+’; the lack of antimicrobial activity is denoted by a ‘−’.
The test system of data set [4] is Clostridium colinum (DSMZ 6011). The data set can be described thus: Spot assay of clarified lysates on non-Cp species. In kind it is cell-based. Set-up: key: The presence of antimicrobial activity is denoted by a ‘+’; the lack of antimicrobial activity is denoted by a ‘−’.
Data set [5] relates to C. perfringens reference strains (NCTC 2837, 8237, 8238, 8239). In kind it is cell-based, Clostridium perfringens.
The subject of data set [6] is C. perfringens strain Cp6. Type of data set: cell-based, Clostridium perfringens.
Data set [7] concerns C. perfringens NCTC reference strains and APHA field isolates. In kind it is cell-based, Clostridium perfringens. Set-up: key to bacteriolytic activity, cell lawn: (−) indicates no visible lysis; +/−, +, ++, +++ correspond to increasingly clear lysis halos around the paper disks; +/−, +, ++, +++ correspond to increasingly clear lysis halos around the paper disks; +/−, +, ++, +++ correspond to increasingly clear lysis halos around the paper disks; +/−, +, ++, +++ correspond to increasingly clear lysis halos around the paper disks.

In data set [8] the test system is Clostridium cellobioparum (DSMZ 1351). The data set can be described thus: Spot assay of clarified lysates on non-Cp species. Type of data set: cell-based. Set-up: key: The presence of antimicrobial activity is denoted by a ‘+’; the lack of antimicrobial activity is denoted by a ‘−’.
The next data set concerns C. perfringens Cp6 PGN. In kind it is biochemical, Clostridium perfringens. The note with it: 54D extract, 3× replicates, fresh PGN stock.
The mark [9] stands for this setting: NCTC 2837, FP (freshly-plated cells).

`NC[C@H]1O[C@H](O[C@H]2[C@H](O)[C@@H](O[C@H]3O[C@H](CO)[C@@H](O)[C@H](N)[C@H]3O)[C@H](N)C[C@@H]2N)[C@H](O)[C@@H](O)[C@@H]1O` [kanamycin]: the “effect in spot assay” value in [1] is “no effect”.

Take “Lysozyme: Chicken hen egg white lysozyme, reference enzybiotic”: the “effect on C. perfringens growth in spot assay” value (“effect on C. perfringens growth” for short) in [1] is reported as “no effect”. The “antimicrobial activity in spot assay (clearance zone)” value (“antimicrobial activity in spot assay” for short) was “−” in data set [1] (NCTC 2837, CL (cell lawn)); “−” in data set [1] (setting [9]); “−” in [1] (NCTC 8235, CL); “−” in data set [1] (NCTC 8235, FP); “−” in data set [1] (NCTC 8237, CL); “−” in data set [1] (NCTC 8237, FP). Moreover, the “antimicrobial activity in spot assay” value in data set [1] (NCTC 8238, CL) was “−”; in data set [1] (NCTC 8238, FP), “−”; in [1] (NCTC 8239, CL), “−”; in data set [1] (NCTC 8239, FP), “−”; in [1] (NCTC 8359, CL), “−”; in data set [1] (NCTC 8359, FP) it was “+”. In addition, the “antimicrobial activity in spot assay” value in [1] (NCTC 8678, CL) is “−”; in data set [1] (NCTC 8678, FP), “−”; in [1] (NCTC 10578, CL), “−”; in data set [1] (NCTC 10578, FP), “−”; in [2] (DSMZ 20083, CL) it was “−”; in [2] (DSMZ 20083, FP) it was “−”. The “antimicrobial activity in spot assay” value in data set [3], in data set [4] and in data set [8] was “−” each time. In addition, the “bacteriolytic activity in turbidity reduction assay” value in data set [5] is “minimal bacteriolytic activities”. For the same molecule, the MBC in [6] (Cp6, molar basis) is over 174 µM; in data set [6] (Cp6, ~2.1E4 cells/mL), over 2500 µg/mL. Also, the MIC in data set [6] (Cp6, molar basis) is over 174 µM; in data set [6] (Cp6, ~2.1E4 cells/mL, overnight at 41° C.) it was over 2500 µg/mL. For the same molecule, in data set [6] (Cp6, ~2.1E4 cells/mL), the “lysozyme loading not able to inhibit overnight growth” value is on record as over 2.5 mg/mL. Moreover, the “bacteriolytic activity, cell lawn” value in data set [7] (APHA B00907, 50 μg/ml) was “−”; in data set [7] (APHA B00917, 50 μg/ml) it was “−”; in data set [7] (APHA B00954, 50 μg/ml) it was “−”; in data set [7] (APHA B00964, 50 μg/ml), “−”; in data set [7] (APHA B00976, 50 μg/ml), “−”; in data set [7] (APHA G00033, 50 μg/ml), “−”. Besides, the “bacteriolytic activity, cell lawn” value is “−” in data set [7] (APHA W100102, 50 μg/ml); “−” in data set [7] (NCTC 2837, 50 μg/ml); “−” in data set [7] (NCTC 8237, 50 μg/ml); “−” in data set [7] (NCTC 8238, 50 μg/ml); “−” in data set [7] (NCTC 8239, 50 μg/ml). Further, the “growth inhibition, freshly plated cells” value in data set [7] (APHA B00907, 50 μg/ml) is listed as “−”; in [7] (APHA B00917, 50 μg/ml), “−”; in data set [7] (APHA B00954, 50 μg/ml), “−”; in data set [7] (APHA B00964, 50 μg/ml), “−”; in data set [7] (APHA B00976, 50 μg/ml) it was “−”; in data set [7] (APHA G00033, 50 μg/ml) it was “−”. The “growth inhibition, freshly plated cells” value is given as “−” in data set [7] (APHA W100102, 50 μg/ml); “−” in data set [7] (NCTC 2837, 50 μg/ml); “−” in data set [7] (NCTC 8237, 50 μg/ml); “−” in [7] (NCTC 8238, 50 μg/ml); “−” in data set [7] (NCTC 8239, 50 μg/ml).

In the case of `O=C([O-])CN(CCN(CC(=O)[O-])CC(=O)O)CC(=O)O.[Na+].[Na+]` [disodium EDTA], the “effect on C. perfringens growth” value in data set [1] is on record as “no effect”. In addition, the “effect on freshly-plated cells in spot assay” value in [1] (10 mM EDTA, screening set 2) is on record as “inhibitory effect”.

Consider `CN[C@@H]1[C@H](O)[C@H](NC)[C@H]2O[C@@]3(O)C(=O)C[C@@H](C)O[C@H]3O[C@@H]2[C@H]1O` [spectinomycin], for which, in data set [1], the “effect on C. perfringens growth” value is “no effect” and the “effect in spot assay” value is recorded as “no effect”.

On to `O=C(N[C@H](CO)[C@H](O)c1ccc([N+](=O)[O-])cc1)C(Cl)Cl` [Chloramphenicol], for which, in [1], the “effect on C. perfringens growth” value was “no effect” and the “effect in spot assay” value is on record as “no effect”.

For `CC1(C)S[C@@H]2[C@H](NC(=O)[C@H](N)c3ccccc3)C(=O)N2[C@H]1C(=O)O` [Ampicillin], the “antimicrobial activity in spot assay” value in data set [1] (NCTC 2837, CL (cell lawn)) was “−”; in [1] (setting [9]), “+”; in [1] (NCTC 8235, CL) it was “−”; in data set [1] (NCTC 8235, FP), “+”; in data set [1] (NCTC 8237, CL), “−”; in data set [1] (NCTC 8237, FP), “+”. Moreover, the “antimicrobial activity in spot assay” value in data set [1] (NCTC 8238, CL) is “−”; in [1] (NCTC 8238, FP), “+”; in data set [1] (NCTC 8239, CL), “−”; in data set [1] (NCTC 8239, FP) it was “+”; in data set [1] (NCTC 8359, CL), “−”; in data set [1] (NCTC 8359, FP), “+”. Also, the “antimicrobial activity in spot assay” value is “−” in data set [1] (NCTC 8678, CL); “+” in [1] (NCTC 8678, FP); “−” in data set [1] (NCTC 10578, CL); “+” in data set [1] (NCTC 10578, FP); “−” in [2] (DSMZ 20083, CL); “+” in [2] (DSMZ 20083, FP). The “antimicrobial activity in spot assay” value in [3] (DSMZ 753, CL) was “−”; in [4] (DSMZ 6011, CL), “−”; in [4] (DSMZ 6011, FP) it was “−”; in data set [8] (DSMZ 1351, CL) it was “−”; in data set [8] (DSMZ 1351, FP) it was “+”.

B1: AMI3CPF4969: endolysin sequence, SEQ ID NO: 11 (protein)
chain: QSRSDSNFKGIDISNWQKGINLNQLKERGYDVCYIKITEGKGYVDPCFEENYNKAIAAGMKVGVYHYWRGTSSAIEQANNIVRTLGNKHIDCKIAIDVEQTDGLSYGELNNSVLQLAEELERLIGAEVCIYCNTNYARNVLDSRLGKYSLWVAHYGVNKPGDNPIWDKWAGFQYSENGTSNVNGSLDLDEFTEEIFINKESSKVTENKLFSTNARALVALDPRDNPSDNYNDLGEIYEGERIQVLAEVCDKEDYLPVKYWKDSEGRESGKVWIRSKQDYMMIDTYHRVFNVITQLDARYEPSSDSATMGYVKNGERLYVHRTEGNYSLCTYFAGNGYKTAWFTAKYLER
modifications: AMI3CPF4969
As to B1, the “fold enhancement of PGN degradation activity in 54D algal extract vs PBS, pH 7.0” value in the data set on C. perfringens Cp6 PGN was at most 44 fold.
